According to ChEMBL document CHEMBL3044945, “Synthesis of 1,3,5-trisubstituted pyrazoline nucleus containing compounds and screening for antimicrobial activity” (2012):
In brackets after ≈: the same amount, converted by molar mass.

What was measured:
Format in all cases: functional
Escherichia coli [1] = assay: Antibacterial activity against Escherichia coli MTCC 1573 at 100 ug/ml after 48 hr by cup-plate method; settings: MTCC 1573, 48 h, read-out: DIZ
Bacillus pumilus [2] = assay: Antibacterial activity against Bacillus pumilus MTCC 1456 at 250 ug/ml after 48 hr by cup-plate method; settings: MTCC 1456, 48 h, read-out: DIZ
Staphylococcus aureus [3] = assay: Antibacterial activity against Staphylococcus aureus MTCC 1430 at 500 ug/ml after 48 hr by cup-plate method; settings: MTCC 1430, 48 h, read-out: DIZ
Staphylococcus aureus [4] = assay: Antibacterial activity against Staphylococcus aureus MTCC 1430 at 750 ug/ml after 48 hr by cup-plate method; settings: MTCC 1430, 48 h, read-out: DIZ
Pseudomonas fluorescens [5] = assay: Antibacterial activity against Pseudomonas fluorescens MTCC 2421 after 24 to 48 hr by tube dilution method
Micrococcus luteus [6] = assay: Antibacterial activity against Micrococcus luteus MTCC 1538 at 1250 ug/ml after 48 hr by cup-plate method; settings: MTCC 1538, 48 h, read-out: DIZ
Bacillus pumilus [7] = assay: Antibacterial activity against Bacillus pumilus MTCC 1456 at 500 ug/ml after 48 hr by cup-plate method; settings: MTCC 1456, 48 h, read-out: DIZ
Bacillus subtilis [8] = assay: Antibacterial activity against Bacillus subtilis MTCC 441 at 250 ug/ml after 48 hr by cup-plate method; settings: MTCC 441, 48 h, read-out: DIZ
Bacillus subtilis [9] = assay: Antibacterial activity against Bacillus subtilis MTCC 441 at 1250 ug/ml after 48 hr by cup-plate method; settings: MTCC 441, 48 h, read-out: DIZ
Micrococcus luteus [10] = assay: Antibacterial activity against Micrococcus luteus MTCC 1538 at 1000 ug/ml after 48 hr by cup-plate method; settings: MTCC 1538, 48 h, read-out: DIZ
Pseudomonas aeruginosa [11] = assay: Antibacterial activity against Pseudomonas aeruginosa MTCC 424 at 100 ug/ml after 48 hr by cup-plate method; settings: MTCC 424, 48 h, read-out: DIZ
Pseudomonas aeruginosa [12] = assay: Antibacterial activity against Pseudomonas aeruginosa MTCC 424 at 250 ug/ml after 48 hr by cup-plate method; settings: MTCC 424, 48 h, read-out: DIZ
Bacillus pumilus [13] = assay: Antibacterial activity against Bacillus pumilus MTCC 1456 at 1000 ug/ml after 48 hr by cup-plate method; settings: MTCC 1456, 48 h, read-out: DIZ
Pseudomonas aeruginosa [14] = assay: Antibacterial activity against Pseudomonas aeruginosa MTCC 424 at 750 ug/ml after 48 hr by cup-plate method; settings: MTCC 424, 48 h, read-out: DIZ
Pseudomonas fluorescens [15] = assay: Antibacterial activity against Pseudomonas fluorescens MTCC 2421 at 750 ug/ml after 48 hr by cup-plate method; settings: MTCC 2421, 48 h, read-out: DIZ
Pseudomonas aeruginosa [16] = assay: Antibacterial activity against Pseudomonas aeruginosa MTCC 424 after 24 to 48 hr by tube dilution method
Bacillus subtilis [17] = assay: Antibacterial activity against Bacillus subtilis MTCC 441 at 100 ug/ml after 48 hr by cup-plate method; settings: MTCC 441, 48 h, read-out: DIZ
Penicillium chrysogenum [18] = assay: Antifungal activity against Penicillium chrysogenum MTCC 161 at 1250 ug/ml after 48 hr by cup-plate method; settings: MTCC 161, 48 h, read-out: DIZ
Bacillus subtilis [19] = assay: Antibacterial activity against Bacillus subtilis MTCC 441 at 500 ug/ml after 48 hr by cup-plate method; settings: MTCC 441, 48 h, read-out: DIZ
Aspergillus niger = assay: Antifungal activity against Aspergillus niger MTCC 2546 at 1000 ug/ml after 48 hr by cup-plate method; settings: MTCC 2546, 48 h, read-out: DIZ
Bacillus pumilus [20] = assay: Antibacterial activity against Bacillus pumilus MTCC 1456 at 1250 ug/ml after 48 hr by cup-plate method; settings: MTCC 1456, 48 h, read-out: DIZ
Escherichia coli [21] = assay: Antibacterial activity against Escherichia coli MTCC 1573 at 750 ug/ml after 48 hr by cup-plate method; settings: MTCC 1573, 48 h, read-out: DIZ
Escherichia coli [22] = assay: Antibacterial activity against Escherichia coli MTCC 1573 at 250 ug/ml after 48 hr by cup-plate method; settings: MTCC 1573, 48 h, read-out: DIZ
Escherichia coli [23] = assay: Antibacterial activity against Escherichia coli MTCC 1573 at 1250 ug/ml after 48 hr by cup-plate method; settings: MTCC 1573, 48 h, read-out: DIZ
Penicillium chrysogenum [24] = assay: Antifungal activity against Penicillium chrysogenum MTCC 161 at 1000 ug/ml after 48 hr by cup-plate method; settings: MTCC 161, 48 h, read-out: DIZ
Pseudomonas aeruginosa [25] = assay: Antibacterial activity against Pseudomonas aeruginosa MTCC 424 at 1250 ug/ml after 48 hr by cup-plate method; settings: MTCC 424, 48 h, read-out: DIZ
Bacillus pumilus [26] = assay: Antibacterial activity against Bacillus pumilus MTCC 1456 at 750 ug/ml after 48 hr by cup-plate method; settings: MTCC 1456, 48 h, read-out: DIZ

In the case of O=[N+]([O-])c1ccc(C2CC(c3cccc4ccccc34)=NN2c2ccc([N+](=O)[O-])cc2[N+](=O)[O-])cc1 (configuration not stated), the zone of inhibition at 100 µg/mL (Escherichia coli [1]) was 9 mm, the zone of inhibition at 250 µg/mL (Bacillus pumilus [2]) was 11 mm and the zone of inhibition at 500 µg/mL (Staphylococcus aureus [3]) was 9 mm. For the same molecule, the zone of inhibition at 750 µg/mL (Staphylococcus aureus [4]) was 10 mm, the MIC (Pseudomonas fluorescens [5]) was 150 µg/mL (≈ 310 µM) and the zone of inhibition at 1250 µg/mL (Micrococcus luteus [6]) was 14 mm. For the same molecule, the zone of inhibition at 500 µg/mL (Bacillus pumilus [7]) was 18 mm, the zone of inhibition at 250 µg/mL (Bacillus subtilis [8]) was 12 mm and the zone of inhibition at 1250 µg/mL (Bacillus subtilis [9]) was 16 mm. The zone of inhibition at 1000 µg/mL (Micrococcus luteus [10]) was 12 mm, the zone of inhibition at 100 µg/mL (Pseudomonas aeruginosa [11]) was 10 mm and the zone of inhibition at 250 µg/mL (Pseudomonas aeruginosa [12]) was 11 mm. The zone of inhibition at 1000 µg/mL (Bacillus pumilus [13]) was 22 mm, the zone of inhibition at 750 µg/mL (Pseudomonas aeruginosa [14]) was 13 mm and the zone of inhibition at 750 µg/mL (Pseudomonas fluorescens [15]) was 21 mm. The MIC (Pseudomonas aeruginosa [16]) was 50 µg/mL (≈ 103 µM), the zone of inhibition at 100 µg/mL (Bacillus subtilis [17]) was 11 mm and the zone of inhibition at 1250 µg/mL (Penicillium chrysogenum [18]) was 26 mm. For the same molecule, the zone of inhibition at 500 µg/mL (Bacillus subtilis [19]) was 13 mm, the zone of inhibition at 1000 µg/mL (Aspergillus niger) was 21 mm and the zone of inhibition at 1250 µg/mL (Bacillus pumilus [20]) was 24 mm. It also gave a zone of inhibition at 750 µg/mL (Escherichia coli [21]) of 12 mm, a zone of inhibition at 250 µg/mL (Escherichia coli [22]) of 10 mm and a zone of inhibition at 1250 µg/mL (Escherichia coli [23]) of 17 mm. For the same molecule, the zone of inhibition at 1000 µg/mL (Penicillium chrysogenum [24]) was 24 mm, the zone of inhibition at 1250 µg/mL (Pseudomonas aeruginosa [25]) was 17 mm and the zone of inhibition at 750 µg/mL (Bacillus pumilus [26]) was 20 mm.
